Measured values: paper PMC10574767, “Extractives from Artemisia afra with Anti-Bacterial and Anti-Fungal Properties” (Plants, 2023)
≈ marks a conversion by molar mass, not a printed value. Read-outs that look alike come from different tables or passages of the source.

Experiments:
[1] = test system: Salmonella Typhimurium ATCC 39183; assay: Serial dilution microplate MIC; format: cell-based; details: for MIC: Salmonella enterica; for Selectivity index S. Typhimurium: in brackets, Vero LC50 vs MIC
Experimental: (§1) The MIC value of the plant extracts and isolated compounds against one fungal and five bacterial strains (Salmonella Typhimurium ATCC 39183, Escherichia coli ATCC 25922, Pseudomonas aeruginosa ATCC 27853, Staphylococcus aureus ATCC 29213, Enterococcus faecalis ATCC 29212, and fungi culture, Candida albicans ATCC 10231) was assessed in triplicate using the serial dilution microplate method; acetone and DMSO were used as solvents. Bacterial cultures were grown in Mueller Hinton broth (Sigma Aldrich, St. Louis, MO, USA) overnight and adjusted to McFarland standard 1 (1 × 10^8 CFU/mL). Then, 100 µL of samples were transferred into the first well of a sterile 96-well microtiter plate, which contained 100 µL of water and a 1:1 serial dilution with sterilized distilled water was carried out. In each well, 100 µL of appropriately adjusted fungal or bacterial cultures were added, and the bacteria were subjected to final concentrations of 250–3.9 μg/mL for pure compounds and 2.5–0.02 mg/mL for crude extracts. Amphotericin-B and Gentamicin (Virbac, Carros, France) served as positive controls for fungi and bacteria, respectively. For sterility, water served as control, while acetone served as a negative control. The microplates were then incubated for 24 h at 37 °C. Following incubation, 40 µL of 0.2 mg/mL p-iodonitrotetrazolium violet (INT, Sigma Aldrich) dissolved in water (hot) was added to the wells before being incubated at 37 °C for another 2 h. In the case of fungi, the INT was added before incubation. The MIC was measured visually as the lowest concentration of the compounds/extracts that inhibited proliferation.

[2] = test system: Pseudomonas aeruginosa ATCC 27853; assay: Serial dilution microplate MIC; format: cell-based; details: Table 2; for MIC: Pseudomonas aeruginosa, read-out: Minimum inhibitory concentration (MIC) P. aeruginosa; for Selectivity index P. aeruginosa: in brackets, Vero LC50 vs MIC
Experimental: as §1

[3] = test system: Escherichia coli ATCC 25922; assay: Serial dilution microplate MIC; format: cell-based; details: Table 2; for MIC: Escherichia coli, ATCC25922, isolated compounds, read-out: Minimum inhibitory concentration (MIC) E. coli; for Selectivity index E. coli: in brackets, Vero LC50 vs MIC
Experimental: as §1

[4] = test system: Staphylococcus aureus ATCC 29213; assay: Serial dilution microplate MIC; format: cell-based; details: Table 2; for MIC: Staphylococcus aureus, read-out: Minimum inhibitory concentration (MIC) S. aureus; for Selectivity index S. aureus: in brackets, Vero LC50 vs MIC
Experimental: as §1

[5] = test system: Enterococcus faecalis ATCC 29212; assay: Serial dilution microplate MIC; format: cell-based; details: Table 2; for MIC: Enterococcus faecalis, read-out: Minimum inhibitory concentration (MIC) E. faecalis; for Selectivity index E. faecalis: in brackets, Vero LC50 vs MIC
Experimental: as §1

Staphylococcus aureus = test system: Staphylococcus aureus; parameters: method as in PMID 19007012; details: filter paper slice method; cited from earlier work
[6] = test system: one fungal and five bacterial strains; assay: Serial dilution microplate MIC, whole panel; format: cell-based; details: isolated compounds, highest concentration 250 µg/mL
Experimental: as §1

[7] = test system: Candida albicans ATCC 10231; assay: Serial dilution microplate MIC (fungi); format: cell-based; details: Table 2; for MIC: Candida albicans, read-out: Minimum inhibitory concentration (MIC) C. albicans; for Selectivity index C. albicans: in brackets, Vero LC50 vs MIC
Experimental: as §1

in vitro = assay: in vitro
Experimental: Cytotoxicity of compounds and extracts was tested against mammalian cells using the MTT assay. MCF-7 cancer cells were grown in a 5% CO2 incubator in Dulbecco’s Modified Eagle’s Medium (DMEM, Highveld Biological, Johannesburg, South Africa) supplemented with 10% fetal calf serum (Adcock-Ingram, Johannesburg, South Africa) and 1% penicillin-streptomycin (10,000 U/mL and 10 mg/mL streptomycin, Sigma Aldrich). In a 5% CO2 incubator, Vero cells were grown in a minimal essential medium (MEM, Highveld Biological, South Africa) supplemented with 5% fetal calf serum (Adcock-Ingram) and 0.1% gentamicin (Virbac). Cell suspensions were obtained from 70–80% confluent monolayer cultures and were plated in 96-well cell culture plates at a density of 1 × 10^4. Plates were incubated in a 5% CO2 incubator for 24 h at 37 °C. The cells were exposed to the extracts or compounds dissolved in the media at different concentrations for 48 h. Positive and negative controls were doxorubicin (Pfizer, New York, NYC, USA) and acetone or DMSO, respectively. After that, the wells were rinsed with phosphate-buffered saline (PBS, Sigma) and 200 µL of fresh medium was poured into the wells. Thirty microlitres (5 mg/mL) of MTT (Sigma) dissolved in PBS was added to each well, and the plates were incubated at 37 °C for 4 h. The medium from the wells was removed, rinsed, and 50 µL of 100% DMSO was added to the wells. At a wavelength of 570 nm, absorbance was measured using a microplate reader (BioTek Synergy, Beijing, China). Each sample concentration was tested in quadruplicate in two repeats (n = 8), and the concentration causing 50% inhibition of cell viability (LC50) was calculated. Selectivity index (SI) values for the extracts/compounds were obtained by dividing cytotoxicity LC50 values of normal (Vero) cells by those of the cancer cells.

IL-6 production = test system: IL-6 production; parameters: method as in PMID 25573777; details: TNF-α stimulated MG-63 cells; cited from earlier work
[8] = test system: Enterococcus faecium UCLA 192; parameters: method as in PMID 31119085; details: cited from earlier work
[9] = parameters: method as in PMID 23878606; details: read-out: EC50 scavenging ABTS; cited from earlier work
[10] = parameters: method as in PMID 22693528; details: cited from earlier work
[11] = test system: Stenotrophomonas maltophila DMST 19079; parameters: method as in PMID 31119085; details: cited from earlier work
Candida albicans = test system: Candida albicans; parameters: method as in PMID 22693528; details: cited from earlier work
[12] = parameters: method as in PMID 23878606; details: read-out: EC50 scavenging DPPH; cited from earlier work
[13] = test system: Staphylococcus aureus ATCC 43300; parameters: method as in PMID 31119085; details: cited from earlier work
S. aureus = test system: S. aureus; parameters: method as in PMID 24575401; details: cited from earlier work
Salmonella sp. = test system: Salmonella sp.; parameters: method as in PMID 24575401; details: cited from earlier work
B. subtilis = test system: B. subtilis; parameters: method as in PMID 24575401; details: cited from earlier work
HeLa cancer cells = test system: HeLa cancer cells; parameters: method as in doi:10.1016/j.sajb.2015.08.016; details: dose-dependent cytotoxicity; cited from earlier work
[14] = test system: normal human primary fibroblasts; parameters: method as in ref 66 = [66]; 66. NCCLS 2007 Available online: http://www.nccls.org (accessed on 15 March 2022); details: cited from earlier work
P. aeruginosa = test system: P. aeruginosa; parameters: method as in doi:10.1590/0102-695X20142413348; details: cited from earlier work
[15] = test system: S. aureus, MRSA, Proteus mirabilis, S. typhi, K. pneumoniae, E. coli, Bacillus subtilis, C. albicans and C. tropicalis; details: 200µg/mL; cited from earlier work
HepG2 cells = test system: HepG2 cells; parameters: method as in ref 66 = [66]; 66. NCCLS 2007 Available online: http://www.nccls.org (accessed on 15 March 2022); details: cited from earlier work
E. faecalis = test system: E. faecalis; parameters: method as in doi:10.1590/0102-695X20142413348; details: cited from earlier work
Huh7 cells = test system: Huh7 cells; parameters: method as in ref 66 = [66]; 66. NCCLS 2007 Available online: http://www.nccls.org (accessed on 15 March 2022); details: cited from earlier work
[16] = isolated compounds, Table 2, read-out: Minimum inhibitory concentration (MIC) S. Typhimurium

COc1cc2ccc(=O)oc2c(OC)c1O[C@H]1O[C@@H](CO)[C@H](O)[C@@H](O)[C@@H]1O [Isofraxidin-7-O-β-D-glucopyranoside, isofraxidin-7-O-β-D-glucopyranoside]
MIC [1, 16]: 250 µg/mL (≈ 650 µM) | Selectivity index S. Typhimurium ([1]; Table 2): > 0.8 | MIC ([2]; ATCC27853, isolated compounds): > 250 µg/mL | Selectivity index P. aeruginosa [2]: < 0.8 | MIC [3]: 250 µg/mL (≈ 650 µM) | Selectivity index E. coli [3]: > 0.8 | MIC ([4]; ATCC29213, isolated compounds): 250 µg/mL (≈ 650 µM) | Selectivity index S. aureus [4]: > 0.8 | MIC ([5]; ATCC29212, isolated compounds): > 250 µg/mL | Selectivity index E. faecalis [5]: < 0.8 | Anti-bacterial effect against Staphylococcus aureus (Staphylococcus aureus): no activity | MIC ([6]; all tested strains, read-out: MIC against all tested microorganisms): ≥ 250 µg/mL | MIC against all tested microorganisms [6]: no efficacy | MIC ([7]; ATCC10231, isolated compounds): 250 µg/mL (≈ 650 µM) | Selectivity index C. albicans [7]: > 0.8 | CC50 at 48 h (in vitro; monkey, LC50): > 200 µg/mL | Inhibitory activity against IL-6 production (IL-6 production): 14%

COc1cc2ccc(=O)oc2cc1O [Scopoletin, scopoletin]
MIC Enterococcus faecium UCLA 192 [8]: 128 µg/mL (≈ 666 µM) | MIC ([1]; read-out: Minimum inhibitory concentration (MIC) S. Typhimurium, isolated compounds, Table 2): 125 µg/mL (≈ 650 µM) | Selectivity index S. Typhimurium ([1]; Table 2): > 1.6 | MIC ([2]; ATCC27853, 24 h, isolated compounds): > 250 µg/mL | Selectivity index P. aeruginosa [2]: < 0.8 | MIC [3]: 62.5 µg/mL (≈ 325 µM) | Selectivity index E. coli [3]: > 3.2 | Selectivity index E. coli ([3]; listed as scopoletin): 3 | MIC ([4]; ATCC29213, 24 h, isolated compounds): 250 µg/mL (≈ 1300 µM) | MIC ([4]; ATCC29213, isolated compounds): 250 µg/mL (≈ 1300 µM) | Selectivity index S. aureus [4]: > 0.8 | MIC ([5]; ATCC29212, 24 h, isolated compounds): 250 µg/mL (≈ 1300 µM) | EC50 [9]: 191.51 ± 0.01 µM | IC50 DPPH radical [10]: 1.24 µg/mL (≈ 6.45 µM) | MIC Stenotrophomonas maltophila DMST 19079 [11]: 256 µg/mL (≈ 1330 µM) | MIC ([7]; ATCC10231, 24 h, isolated compounds): 250 µg/mL (≈ 1300 µM) | Selectivity index C. albicans [7]: > 0.8 | Activity against Candida albicans (Candida albicans): ineffective | EC50 [12]: 647.89 ± 0.07 µM | CC50 at 48 h (in vitro): > 200 µg/mL | MIC Staphylococcus aureus ATCC 43300 [13]: 128 µg/mL (≈ 666 µM)

C[C@@H]1CC[C@H]2[C@@H](C)C(=O)O[C@@H]3O[C@@]4(C)CC[C@@H]1[C@]32OO4 [Artemisinin]
MIC S. aureus (S. aureus): 90 µg/mL (≈ 319 µM) | MIC Salmonella sp. (Salmonella sp.): 90 µg/mL (≈ 319 µM) | MIC B. subtilis (B. subtilis): 90 µg/mL (≈ 319 µM)

C=C1C(=O)O[C@@H]2C[C@@]3(C)CCCC(=C)[C@@H]3C[C@H]12 [Isoalantolactone]
IC50 (HeLa cancer cells): 8.15 ± 1.16 µM

CC[C@@H](CC[C@@H](C)[C@H]1CC[C@H]2[C@@H]3CC=C4C[C@@H](O[C@H]5O[C@@H](CO)[C@H](O)[C@@H](O)[C@@H]5O)CC[C@]4(C)[C@H]3CC[C@]12C)C(C)C [Sitosterol-3-O-β-D-glucopyranoside, sitosterol-3-O-β-D-glucopyranoside]
Cytotoxic effects on normal human primary fibroblasts [14]: not against normal human primary fibroblasts | MIC [1, 16]: > 250 µg/mL | Selectivity index S. Typhimurium ([1]; Table 2): < 0.8 | MIC ([2]; ATCC27853, isolated compounds): > 250 µg/mL | Selectivity index P. aeruginosa [2]: < 0.8 | MIC [3]: > 250 µg/mL | Selectivity index E. coli [3]: < 0.8 | MIC ([4]; ATCC29213, isolated compounds): > 250 µg/mL | Selectivity index S. aureus [4]: < 0.8 | MIC ([5]; ATCC29212, isolated compounds): 31.2 µg/mL (≈ 54.2 µM) | Selectivity index E. faecalis [5]: > 6.4 | Selectivity index E. faecalis ([5]; listed as sitosterol-3-O-β-D-glucopyranoside): more than 6 | MIC ([7]; ATCC10231, isolated compounds): 250 µg/mL (≈ 433 µM) | Selectivity index C. albicans [7]: > 0.8 | MIC P. aeruginosa (P. aeruginosa): 10 µg/mL (≈ 17.3 µM) | CC50 at 48 h (in vitro; monkey, LC50): > 200 µg/mL | Anti-bacterial and anti-fungal activity [15]: wide spectrum of anti-bacterial and anti-fungal activity | IC50 proliferation of HepG2 cells (HepG2 cells): 4.64 ± 0.48 µg/mL | MIC E. faecalis (E. faecalis): 15 µg/mL (≈ 26 µM) | IC50 proliferation of Huh7 cells (Huh7 cells): 5.25 ± 0.14 µg/mL
